Values after ≈ are worked out from the molar mass of the structure shown. Values joined by “and” are separate entries in the source; they are usually repeats but may differ in a detail not shown here. Identical values can stand only once.
What was measured:
[1] = tested on: U937RF, a protease resistant strain; test: Long term in vitro study, U937RF, reverse transcriptase; type: cell-based, HIV
Protocol: A microtiter-based reveres transcriptase (RT) reaction is utilized (Buckheit et al (1991) AIDS Research and Human Retroviruses 7:295-302). Tritiated thymidine triphosphate (NEN)(TTP) is resuspended in distilled water at 5 Ci/ml. Poly rA and oligo dT are prepared as a stock solution which is kept at −20° C. The RT reaction buffer is prepared fresh on a daily basis and consists of 125 μl 1M EGTA, 125 μl water, 125 μl Triton X-100, 50 μl Tris (pH 7.4), 50 μl 1 MDDT, and 40 μl 1M MgCl2. These three solutions are mixed together in a ratio of 1 part TTP, 2.5 parts poly rA:oligo dT, 2.5 parts reaction buffer and 4 parts distilled water. Ten microliters of this reaction mixture is placed in a round bottom microtiter place and 15 μl of virus containing supernatant is added and mixed. The plate is incubated at 37° C. for 60 minutes. Following reaction, the reaction volume is spotted onto filter mats, washed 6 times for 5 minutes each in a 5% sodium phosphate buffer, 2 times for 1 minute each in distilled water, 2 times for 1 minute each in 70% ethanol, and then dried. The dried filter mat is placed in a plastic sample bag, Betaplate scintillation fluid is added and the bag is heat sealed. Incorporated radioactivity is quantified utilizing a Wallac Microbeta scintillation counter.
Acute infection of most established human cell lines with HIV-1 results in the eventual establishment of a constitutive virus-producing chronically infected cell line. The cells can be passaged for long periods of time in culture without loss of virus production. These cells may be utilized to evaluate the effects of anti-HIV compounds on syncytium formation or to evaluate the effects of anti-HIV compounds on levels of virus production from these cells. […] Each of the cells contains an integrated HIV genome or provirus. Chronically infected CEM, H9 and U937 cell lines have been prepared and cultured by Southern Research Institute, Frederick Md. and are available from them.
CEM-SS cells chronically infected with HIV isolate, for example SKI (CEM-SKI) are cultured in RPMI1640 tissue culture medium supplemented with 10% fetal bovine serum and antibiotics. […] CEM-SKI or other infected cells with no added drug are used as the control cells. Cells are allowed to grow to a density of approximately 1×10^6 cells/ml and are then passaged at a 1:10 dilution. […] The drug concentration in the flask is then increased two-fold and the cells maintained as above.
The cell populations contain integrated copies of the HIV genome and constitutively produce HIV at relatively high levels or are latently infected and only produce virus after stimulation with phorbol esters, tumor necrosis factor or IL6 (U1 and ACH2). Reductions in virus products were observed when quantifying supernatant reverse transcriptase activity,
A long term in vitro study of 2-(2-thienyl)-imidazolo [4,5-b]pyridine against U937RF, a protease resistant strain, was conducted at three different levels. The results with U937RF cells were reported at weekly intervals.

[2] = tested on: HEPG22.2.15; test: Hepatitis B test: toxicity values; type: cell-based
[3] = tested on: HHV8 cell line, TPA-induced BCBL-1 cells; test: Kaposi's Sarcoma (HHV8) in vitro test, DNA copy number; type: cell-based
Protocol: The DNA copy number and the toxicity value were measured and compared with Cidofovir.

Molecule `c1csc(-c2nc3cccnc3[nH]2)c1` [2-(2-thienyl)-imidazolo [4,5-b]pyridine] has a reverse transcriptase data ([1]; 7 μg/ml, day 4) of 9711, a reverse transcriptase data ([1]; 7 μg/ml, day 11) of 9974 and a reverse transcriptase data ([1]; 7 μg/ml, day 18) of 7462. It also gave a reverse transcriptase data ([1]; 7 μg/ml, day 25) of 6952, a reverse transcriptase data ([1]; 7 μg/ml, day 32) of 9161 and a reverse transcriptase data ([1]; 7 μg/ml, day 39) of 11155. For the same molecule, the reverse transcriptase data ([1]; 7 μg/ml, day 46) was 5178, the reverse transcriptase data ([1]; 7 μg/ml, day 53) was 5878 and the reverse transcriptase data ([1]; 7 μg/ml, day 60) was 7586. It also gave a reverse transcriptase data ([1]; 7 μg/ml, day 67) of 6678, a reverse transcriptase data ([1]; 7 μg/ml, day 71) of 7299 and a reverse transcriptase data ([1]; 7 μg/ml, day 74) of 5927. It also gave a reverse transcriptase data ([1]; 7 μg/ml, day 88) of 6996, a reverse transcriptase data ([1]; 7 μg/ml, day 95) of 5624 and a reverse transcriptase data ([1]; 7 μg/ml, day 102) of 6002. It also gave a reverse transcriptase data ([1]; 7 μg/ml, day 109) of 13890, a reverse transcriptase data ([1]; 15 μg/ml, day 4) of 6397 and a reverse transcriptase data ([1]; 15 μg/ml, day 11) of 8051. For the same molecule, the reverse transcriptase data ([1]; 15 μg/ml, day 18) was 7932, the reverse transcriptase data ([1]; 15 μg/ml, day 25) was 5229 and the reverse transcriptase data ([1]; 15 μg/ml, day 32) was 7277. It also gave a reverse transcriptase data ([1]; 15 μg/ml, day 39) of 12487, a reverse transcriptase data ([1]; 15 μg/ml, day 46) of 4703 and a reverse transcriptase data ([1]; 15 μg/ml, day 53) of 4960. It also gave a reverse transcriptase data ([1]; 15 μg/ml, day 60) of 7952, a reverse transcriptase data ([1]; 15 μg/ml, day 67) of 6417 and a reverse transcriptase data ([1]; 15 μg/ml, day 71) of 7016. For the same molecule, the reverse transcriptase data ([1]; 15 μg/ml, day 74) was 5903, the reverse transcriptase data ([1]; 15 μg/ml, day 88) was 5887 and the reverse transcriptase data ([1]; 15 μg/ml, day 95) was 4602. For the same molecule, the reverse transcriptase data ([1]; 15 μg/ml, day 102) was 5229, the reverse transcriptase data ([1]; 15 μg/ml, day 109) was 5718 and the reverse transcriptase data ([1]; 30 μg/ml, day 4) was 4841. It also gave a reverse transcriptase data ([1]; 30 μg/ml, day 11) of 5389, a reverse transcriptase data ([1]; 30 μg/ml, day 18) of 6988 and a reverse transcriptase data ([1]; 30 μg/ml, day 25) of 6061. The reverse transcriptase data ([1]; 30 μg/ml, day 32) was 7572, the reverse transcriptase data ([1]; 30 μg/ml, day 39) was 8558 and the reverse transcriptase data ([1]; 30 μg/ml, day 46) was 3065. The reverse transcriptase data ([1]; 30 μg/ml, day 53) was 3643, the reverse transcriptase data ([1]; 30 μg/ml, day 60) was 3445 and the reverse transcriptase data ([1]; 30 μg/ml, day 67) was 4368. The reverse transcriptase data ([1]; 30 μg/ml, day 71) was 1498, the reverse transcriptase data ([1]; 30 μg/ml, day 74) was 3639 and the reverse transcriptase data ([1]; 30 μg/ml, day 88) was 2697. It also gave a reverse transcriptase data ([1]; 30 μg/ml, day 95) of 2442, a reverse transcriptase data ([1]; 30 μg/ml, day 102) of 2815 and a reverse transcriptase data ([1]; 30 μg/ml, day 109) of 2095. The “reverse transcriptase data on continuation (in words)” value ([1]; run through 242 days) was “data remained consistent”, the “Toxicity Values, % cell control” value ([2]; 0.64 μg/ml) was 108.5% and the “Toxicity Values, mean” value ([2]; 0.64 μg/ml) was 1.359. For the same molecule, the “Toxicity Values, samples 1-3” value ([2]; 0.64 μg/ml) was 1.389 and 1.334 and 1.355, the “Toxicity Values, % cell control” value ([2]; 2 μg/ml) was 101.1% and the “Toxicity Values, mean” value ([2]; 2 μg/ml) was 1.266. For the same molecule, the “Toxicity Values, samples 1-3” value ([2]; 2 μg/ml) was 1.121 and 1.246 and 1.432, the “Toxicity Values, % cell control” value ([2]; 6.4 μg/ml) was 101.5% and the “Toxicity Values, mean” value ([2]; 6.4 μg/ml) was 1.271. The “Toxicity Values, samples 1-3” value ([2]; 6.4 μg/ml) was 1.249 and 1.157 and 1.407, the “Toxicity Values, % cell control” value ([2]; 20 μg/ml) was 30.7% and the “Toxicity Values, mean” value ([2]; 20 μg/ml) was 0.385. The “Toxicity Values, samples 1-3” value ([2]; 20 μg/ml) was 0.404 and 0.389 and 0.361, the “Toxicity Values, % cell control” value ([2]; 64 μg/ml) was 1.4% and the “Toxicity Values, mean” value ([2]; 64 μg/ml) was 0.017. The “Toxicity Values, samples 1-3” value ([2]; 64 μg/ml) was 0.017 and 0.018, the “Toxicity Values, % cell control” value ([2]; 200 μg/ml) was 1.4% and the “Toxicity Values, mean” value ([2]; 200 μg/ml) was 0.017. For the same molecule, the “Toxicity Values, samples 1-3” value ([2]; 200 μg/ml) was 0.018 and 0.017, the TC50 ([2]; first experiment) was 16.3 µg/mL (≈ 81 µM) and the TC50 ([2]; replicate experiment) was 16.8 µg/mL (≈ 83.5 µM). For the same molecule, the “DNA Copy Number, % virus control” value ([3]; 0.64 μM) was 97.2%, the “DNA Copy Number, average” value ([3]; 0.64 μM) was 14122.1 per 3 μl and the “DNA Copy Number, samples 1-3” value ([3]; 0.64 μM) was 16524.7 per 3 μl and 16524.9 per 3 μl and 12316.8 per 3 μl. For the same molecule, the “DNA Copy Number, % virus control” value ([3]; 2 μM) was 94.0%, the “DNA Copy Number, average” value ([3]; 2 μM) was 13653.8 per 3 μl and the “DNA Copy Number, samples 1-3” value ([3]; 2 μM) was 13427.5 per 3 μl and 11819.4 per 3 μl and 15714.5 per 3 μl. The “DNA Copy Number, % virus control” value ([3]; 6.4 μM) was 95.5%, the “DNA Copy Number, average” value ([3]; 6.4 μM) was 13876.4 per 3 μl and the “DNA Copy Number, samples 1-3” value ([3]; 6.4 μM) was 11795.6 per 3 μl and 15297.5 per 3 μl and 14536.1 per 3 μl. The “DNA Copy Number, % virus control” value ([3]; 20 μM) was 77.9%, the “DNA Copy Number, average” value ([3]; 20 μM) was 11321.8 per 3 μl and the “DNA Copy Number, % virus control” value ([3]; 64 μM) was 2.9%. For the same molecule, the “DNA Copy Number, average” value ([3]; 64 μM) was 427.3 per 3 μl, the “DNA Copy Number, % virus control” value ([3]; 200 μM) was 13.9% and the “DNA Copy Number, average” value ([3]; 200 μM) was 2020.8 per 3 μl. The “DNA Copy Number, samples 1-3” value ([3]; 200 μM) was 1680.4 per 3 μl and 2041.2 per 3 μl and 2340.8 per 3 μl and the IC50 ([3]; Human gammaherpesvirus 8, BCBL1) was 36.4 µM.

Source: patent publication US20030232851A1, “Viral treatment” (The Procter & Gamble Company, priority 1999, published 2003)
